Measurements: BindingDB's records for patent US12240838 (Biogen Ma, 2025)

Molecular target: Tyrosine-protein kinase BTK (Homo sapiens, UniProt Q06187)
Assay: In Vitro BTK Kinase Assay
Procedure: The purpose of the BTK in vitro assay is to determine compound potency against BTK through the measurement of IC50. […] For a typical assay, a 24 μL aliquot of a ATP/peptide master mix (final concentration; ATP 10 μM, polyGAT 100 nM) in kinase buffer (10 mM Tris-HCl pH 7.5, 10 mM MgCl2, 200 μM Na3PO4, 5 mM DTT, 0.01% Triton X-100, and 0.2 mg/ml casein) is added to each well. […] The assay is incubated for 30 minutes before being stopped with […] of a 50 mM EDTA solution. […] The plate is covered and incubated for 45 minutes at room temperature.

Chain of Tyrosine-protein kinase BTK (Q06187 whole entry): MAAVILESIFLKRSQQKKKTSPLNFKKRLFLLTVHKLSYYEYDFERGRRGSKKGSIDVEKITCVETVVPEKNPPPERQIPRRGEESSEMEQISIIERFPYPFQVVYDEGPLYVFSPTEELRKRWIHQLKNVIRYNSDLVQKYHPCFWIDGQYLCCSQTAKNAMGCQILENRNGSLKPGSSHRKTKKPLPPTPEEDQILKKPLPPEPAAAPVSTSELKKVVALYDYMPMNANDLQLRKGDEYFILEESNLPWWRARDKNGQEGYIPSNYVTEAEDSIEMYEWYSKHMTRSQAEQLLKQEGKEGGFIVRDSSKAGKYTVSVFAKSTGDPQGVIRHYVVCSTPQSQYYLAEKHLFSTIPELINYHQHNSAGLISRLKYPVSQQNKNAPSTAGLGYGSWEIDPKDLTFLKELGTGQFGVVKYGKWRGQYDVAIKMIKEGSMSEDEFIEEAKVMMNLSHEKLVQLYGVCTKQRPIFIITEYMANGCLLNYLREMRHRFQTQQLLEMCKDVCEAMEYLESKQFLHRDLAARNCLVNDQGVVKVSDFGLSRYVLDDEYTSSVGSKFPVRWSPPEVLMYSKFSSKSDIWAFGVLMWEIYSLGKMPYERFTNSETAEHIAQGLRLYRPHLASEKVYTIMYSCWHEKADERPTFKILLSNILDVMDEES

SMILES: CC(C)(C)c1nc(C(=O)NCc2cc(F)c(-c3ccnc(NC(=O)C4CC4)c3)cc2C(F)(F)F)no1 [US12240838, Compound 62]
- IC50: < 1 nM
